Earlier results in patent publication US9993560B2, “Rifaximin complexes” (Cipla Limited, priority 2008, dated 2018).

solubility in water (water) | solubility compared with other known forms of rifaximin | SMILES
sparingly soluble |  | CO[C@H]1/C=C/O[C@@]2(C)Oc3c(C)c(O)c4c(O)c(c5c(nc6cc(C)ccn65)c4c3C2=O)NC(=O)/C(C)=C\C=C\[C@H](C)[C@H](O)[C@@H](C)[C@@H](O)[C@@H](C)[C@H](OC(C)=O)[C@@H]1C [rifaximin, (2S, 16Z, 18E, 20S, 21S, 22R, 23R, 24R, 25S, 26S, 27S, 28E)-5,6,21,23,25-pentahydroxy-27-methoxy-2,4,11,16,20,22,24,26-octamethyl-2,7-(epoxypentadeca-[1,11,13]-trienimino)benzofuro-[4,5-e]-pyrido-[1,2-a]-benzimidazole-1,15-(2H)-dione, 25-acetate]
 | least soluble known form of rifaximin | CO[C@H]1/C=C/O[C@@]2(C)Oc3c(C)c(O)c4c(O)c(c5c(nc6cc(C)ccn65)c4c3C2=O)NC(=O)/C(C)=C\C=C\[C@H](C)[C@H](O)[C@@H](C)[C@@H](O)[C@@H](C)[C@H](OC(C)=O)[C@@H]1C [β-form of rifaximin]
